Test results taken from patent US20090312384A1, “Benzimidazole As Cooling Compounds” (priority 2006, published 2009).

Experiments:
panelists = experiment: Panel tasting of aqueous solutions for cooling intensity versus menthol at 2 ppm; type: in vivo; conditions: aqueous solution; concentration with cooling intensity similar or slightly higher than a solution of menthol at 2 ppm
Source text: Experiments on cooling properties/intensities.
A group of panelists was asked to taste various aqueous solutions of compounds of formula (I) and to indicate which solutions had cooling intensities similar or slightly higher than that of a solution of menthol at 2 ppm.

panelist = experiment: Application in toothpaste: panelist's teeth brushed with toothgel containing the cooling compound; type: in vivo; conditions: 0.20 g of 5% (w/w) ethanol solution in opaque toothgel with peppermint oil and saccharin, after brushing and rinsing
Procedure: [table] The chemicals were mixed in the toothgel, a piece of toothgel was put on a toothbrush and a panelist's teeth were brushed. The mouth was rinsed with water and the water was spit out. […] The cooling perception lasted for 90 minutes.

Molecule `COc1ccc(C(=O)OC(=Cc2nc3ccccc3n2C)c2ccc(OC)cc2)cc1` [1-(4-methoxyphenyl)-2-(1-methyl-1H-benzo[d]imidazol-2-yl)vinyl 4-methoxybenzoate] has a Concentration (panelists) of 0.5 ppm.

For `CC1CCC(C(C)C)C(O)C1` (stereo not drawn) [Example 1-Menthol, 1-Menthol, reference compound], the Concentration (panelists) was 2 ppm solution.

With `COc1ccc(C(=O)OC(=Cc2nc3cc(C)ccc3n2C(C)C)c2ccc(Cl)cc2)cc1` [Example 2, 1-(4-chlorophenyl)-2-(1-isopropyl-5-methyl-1H-benzo[d]imidazol-2-yl)vinyl 4-methoxybenzoate] the melting point was 155 to 160 °C.

`COc1ccc(C(=O)OC(=Cc2nc3cc(C)ccc3n2C(C)C)c2ccc(OC)cc2)cc1` [Example 3, 2-(1-isopropyl-5-methyl-1H-benzo[d]imidazol-2-yl)-1-(4-methoxyphenyl)vinyl 4-methoxybenzoate] gave a Concentration (panelists) of 0.5 ppm and a melting point of 147 to 152 °C.

`Cc1ccc2nc(C=C(OC(=O)c3ccc(Cl)cc3)c3ccc(Cl)cc3)n(C(C)C)c2c1` [Example 4, 1-(4-chlorophenyl)-2-(1-isopropyl-6-methyl-1H-benzo[d]imidazol-2-yl)vinyl 4-chlorobenzoate] gave a melting point of 158 to 165 °C.

For `COc1ccc(C(=O)OC(=Cc2nc3ccc(C)cc3n2C(C)C)c2ccc(OC)cc2)cc1` [Example 5, 2-(1-isopropyl-6-methyl-1H-benzo[d]imidazol-2-yl)-1-(4-methoxyphenyl)vinyl 4-methoxybenzoate], the “Duration of cooling perception” value (panelist) was 90 min, the “Cooling sensation felt by the panelist” value (panelist; all areas of the mouth) was “intense cooling sensation” and the Concentration (panelists) was 0.5 ppm. The melting point was 125 to 130 °C.

`Cc1ccc(C(=O)OC(=Cc2nc3ccccc3n2C)c2ccc(C)cc2)cc1` [Example 8, 2-(1-methyl-1H-benzo[d]imidazol-2-yl)-1-p-tolylvinyl 4-methylbenzoate] showed a Concentration (panelists) of 2.0 ppm.

`CCNC(=O)C1CC(C)CCC1C(C)C` (stereo not drawn) [N-ethyl p-menthanecarboxamide (WS-3), N-ethyl p-menthanecarboxamide, reference compound] gave a Concentration (panelists) of 1.5 ppm.
